Paper PMC9258321, “Structure-guided design of CPPC-paired disulfide-rich peptide libraries for ligand and drug discovery” (Chemical Science, 2022)
pKd: −log10 of the molar value. Bridge positions count the residues as written; N and C are the ends. Square brackets hold non-standard residues; d marks the D form. Peptide text beside a SMILES is read from it. * marks the point of attachment. FITC = O=C1OC2(c3ccc(O)cc3Oc3cc(O)ccc32)c2ccc(NC(=S)*)cc21; βAla = NCCC(=O)O

Tests used:
Keap1 = target: T1, Keap1 (Homo sapiens, UniProt Q14145); experiment: Surface plasmon resonance (SPR) assay, affinity of peptides to Keap1; format: binding; conditions: Biacore T200, 25 °C, biotinylated Keap1 on CAP chip, peptide 25-1600 nM, flow 30 μL/min, multi-cycle affinity method, oxidized, HPLC-purified peptide, read-out: equilibrium dissociation constant (KD) toward Keap1
T1 construct: another target (the Kelch domain of Keap1)
T1 sequence (Q14145 321-609 limits assumed, species assumed): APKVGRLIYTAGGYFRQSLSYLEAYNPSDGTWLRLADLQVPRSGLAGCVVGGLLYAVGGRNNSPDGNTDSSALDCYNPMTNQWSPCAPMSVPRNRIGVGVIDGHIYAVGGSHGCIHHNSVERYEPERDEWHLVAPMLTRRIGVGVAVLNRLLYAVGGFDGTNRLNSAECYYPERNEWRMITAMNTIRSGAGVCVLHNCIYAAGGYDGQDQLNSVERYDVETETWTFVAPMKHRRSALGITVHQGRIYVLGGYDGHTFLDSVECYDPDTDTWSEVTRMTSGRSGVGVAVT
Procedure: Surface plasmon resonance (SPR) assay
The affinity of peptides to Keap1 was measured using Biacore T200 (GE healthcare) at 25℃. At first, Keap1 was linked to a Biacore CAP chip via the interaction of biotin and avidin (Biotinylation of Keap1 occurs through the preceding reaction, Biacore CAP chip was performed through a Biotin CAPture Kit (GE healthcare)). Then, different concentrations of peptides were used in experiment (25, 50, 100, 200, 400, 800, 1600 nM) at a flow rate of 30 μL/min. The binding affinity and kinetics constants were quanti-fied by a multi-cycle affinity method.
NMR samples were dissolved in 80% perdeuterated acetonitrile and 20% H2O for drp1, 75% perdeu-terated acetonitrile and […] for drp2-a, 60% perdeuterated acetonitrile and 40% H2O for drp8, 50% perdeuterated acetonitrile and 50% H2O for drp3 and drp6, 40% perdeuterated acetonitrile and 60% H2O for drp2-b and drp4 (The solution conditions depend on the dispersion of cross -peaks). All of NMR samples were prepared in a final concentration of about 1 mM. […] Two dimensional (2D) 1H, 15N/13C HSQC spectra were recorded to obtain chemical shifts of heavy atoms in backbone and side-chains. […]
The backbone dihedral angle restraints were obtained using programs TALOS -N based on chemical shifts of backbone resonances6. […] The structures were visualized in PyMol, and the quality of structures was analyzed using PROCHECK 9. […]

MDM2 = experiment: Fluorescence polarization (FP) competition assay, binding to MDM2; conditions: FP competition assay described previously (ref 32 method); oxidized products; Fig. S3
From the text: The most abundantly enriched sequences from both selections were then synthesized, and their oxidative folding in redox buffers were examined using HPLC. Oxidation of the MDM2-binding peptide (drp2) yields two products (drp2-a and drp2-b) in a ratio of ∼1 : 3 (Fig. 2c). […] The structures of the two products were then characterized using NMR (Fig. 2c; PDB 7W8O and 7W8R). Both products can maintain a stable, but different 3D structure with a conserved α-helix responsible for target recognition, corresponding to the parallel and antiparallel dimeric pairing of the two CPPC motifs in the peptide (drp2-a and drp2-b, respectively). […]
min incubation at room temperature, the fluorescence anisotropies were measured using a plate reader (Eex= 485 nm, Eem=535 nm). All of the measurements were recorded in triplicate. In the fluorescence polarization assay s measuring the binding of reduced FITC-drp8 to CD28 and the binding of oxidized FITC-drp8 to CTLA-4, the fluorescence anisotrop ies were recorded in the same way as described above.
Dissociation constants ( KD) were determined by nonlinear regression analysis of anisotrop ies versus the concentrations of the protein using the following equation: […]
(b) Competition fluorescence polarization assay. The binding of drp8 to CD28 was measured by adding dilutions of drp8 to premixed oxidized FITC-drp8 and CD28 in PBS (pH 7.4). […]

[1] = Circular dichroism (CD) thermal denaturation; format: physicochemical; conditions: CD 190-260 nm, 61 μM in pure water, scans at 25, 45, 75 and 95 °C; only a small decline of CD signals up to 95 °C; Fig. S7
From the text: (§1) from 2% agarose gel (containing 0.005% v/v of 4S Red Plus Nucleic Acid Stain) used a commercial agarose gel purification kit (E.Z.N.A® Gel Extraction Kit, OMEGA BIO-TEK, USA). Then, Novogene Co., Ltd. was commissioned for sequence identification. The data were processed and analyzed using […]
(§2) All peptides were synthesized on a CEM Liberty Blue automated microwave peptide synthesizer by standard Fmoc solid-phase chemistry on a Rink Amide MBHA resin (0.025 mmol scale). Coupling reac-tions were performed with a Fmoc-AA-OH (5 eq., 0.2 M solution in DMF), DIC (5 eq., 0.25 M solution in DMF) and Oxyma Pure (5 eq., 1.0 M solution in DMF). Fmoc groups were removed using a 20% (v/v) solution of piperidine in DMF. […]
(§3) In a typical experiment, reduced peptide (50 μM) was dissolved in 100 mM phosphate buffer (500 μL, pH 7.4) containing 6 M Gu·HCl, 0.5 mM GSSG and 10% DMSO (v/v). […] After analyzed by MALDI-TOF MS, the oxidized peptide was purified and lyophilized to yield […]
(§4) Circular dichroism (CD) wavelength and temperature scans were recorded for thermal denaturation experiments. […] Wavelength scans from 190 nm to 260 nm were recorded at 25℃, 45℃, 75℃ and 95℃, and temperature were carried out at a heating rate of 5℃/min in 1 mm path length cuvettes.
(§5) Fluorescence polarization (FP) assay
(§6) (a) Fluorescence polarization binding assay. […]

CD28 = target: T2, CD28 (Homo sapiens, UniProt P10747); experiment: Fluorescence polarization binding assay (saturation binding of FITC-drp8 to CD28); conditions: FP assay, same way as for oxidized FITC-drp8
T2 construct: purchased Sino Biological 11524-HCCH
T2 sequence (P10747 19-220): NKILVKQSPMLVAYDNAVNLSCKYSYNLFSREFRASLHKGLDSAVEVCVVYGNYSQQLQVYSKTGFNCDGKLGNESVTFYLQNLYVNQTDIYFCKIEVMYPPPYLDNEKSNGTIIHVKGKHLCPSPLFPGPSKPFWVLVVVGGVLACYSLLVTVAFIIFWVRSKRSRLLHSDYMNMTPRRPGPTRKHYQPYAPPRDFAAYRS
From the text: as §1
as §2, with “DMF).” for “DMF). Fmoc groups were removed using a 20% (v/v) solution of piperidine in DMF.”
as §3, §4, §5, §6
min incubation at room temperature, the fluorescence anisotropies were measured using a plate reader (Eex= 485 nm, Eem=535 nm). […]

## CC[C@H](C)[C@@H]1NC(=O)[C@H](CCC(=O)O)NC(=O)[C@@H]2CSSC[C@H](NC(=O)[C@H](CO)NC(=O)[C@H](CO)NC(=O)[C@H](C(C)C)NC(=O)[C@H](CCC(=O)O)NC(=O)[C@H](CCSC)NC(=O)[C@@H]3CSSC[C@H](NC(=O)[C@H](CCCNC(=N)N)NC(=O)[C@H](CO)NC(=O)CNC1=O)C(=O)N1CCC[C@H]1C(=O)N1CCC[C@H]1C(=O)N[C@H](C(N)=O)CSSC[C@H](NC(=O)[C@@H](N)Cc1c[nH]c4ccccc14)C(=O)N1CCC[C@H]1C(=O)N1CCC[C@H]1C(=O)N3)C(=O)N[C@@H](CC(=O)O)C(=O)N[C@@H](CCC(=O)O)C(=O)N[C@@H](CCC(=O)O)C(=O)N[C@@H]([C@@H](C)O)C(=O)NCC(=O)N[C@@H](CCC(=O)O)C(=O)N2 [drp6] (H-WCPPCMEVSSCDEETGECEIGSRCPPC-NH2; disulfide 2-27, 5-24, 11-18)
Keap1
  pKd: 7.33

## H-GCPPCESCHSGESTFWCYWEALCPPC-NH2 (also: bicyclic or more (positions not given here)) [drp2-a, oxidized product of drp2]
MDM2
  affinity to MDM2 (in words): subnanomolar affinity

## H-SCPPCHGRPTCTKPGDNATPEKLAKYQACWELLTCPPC-OH (also: bicyclic or more (positions not given here)) [drp4, drp1 grafted with loop-α-helix fold of PPα-Tyr; recombinantly produced in E. coli as SUMO fusion]
[1]
  thermal stability of the 3D structure (CD signal): extremely stable to thermal treatment

## {FITC}-[βAla]GCPPCPREHELVAVPCEGLNNCWFVEACPPC-NH2 (cysteine pairing not given here) [reduced drp8, reduced form of fluorescein-labeled drp8]
CD28
  binding of reduced labeled peptide to CD28 (in words): negligible
